# The source made the active and inactive calls.
# Tests used:
# [1] = microbe, parasite or virus in culture; format: functional; details: Mycobacterium tuberculosis
# [2] = biological target: G-protein coupled receptor 55 (Homo sapiens, UniProt Q9Y2T6); experiment: GPR55 antagonists blocking LPI-driven arrestin recruitment, primary screen, imaging, U2OS, beta-arrestin-GFP, LPI agonist (AID 2013); format: functional;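 further: antagonist potency measured as reduced agonist-driven arrestin aggregation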
# Melanocortin receptor 4 = Melanocortin receptor 4 (Homo sapiens, UniProt P32245); format: functional, cell-based;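 further: Cell-based assay with luminescence read-out, confirmatory dose-response testing for agonist activity of biased ligands at MC4R; human U2OS cells with tagged receptor and beta-arrestin; potency of agonists that increase receptor coupling to beta-arrestin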
# [3] = biological target: Eukaryotic translation initiation factor 4H (Homo sapiens, UniProt Q15056); experiment: eIF4H inhibition in translation initiation, SAR follow-up (AID 435011); format: functional
# Estrogen receptor beta [4] = biological target: T1, Estrogen receptor beta (Homo sapiens, UniProt Q92731);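 further: recombinant ER-beta bound to coactivator SRC1 peptide in presence of estradiol agonist; inhibitors block coactivator peptide binding and lower the FRET signal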
# [5] = biological target: DNA (cytosine-5)-methyltransferase 1 (Homo sapiens, UniProt P26358); experiment: DNMT1 methyltransferase inhibitors, confirmation, biochemical, fluorescent molecular beacon (AID 602386); format: functional
# Estrogen receptor beta [6] = biological target: T1, Estrogen receptor beta; experiment: ERβ–SRC-3 coactivator interaction inhibitors, confirmation, orthogonal assay, biochemical, ELISA, streptavidin-HRP readout (AID 1060)
# [7] = biological target: Polyadenylate-binding protein 1 (Homo sapiens, UniProt P11940); experiment: PABP inhibition in translation initiation, SAR follow-up (AID 435018); format: functional
# [8] = biological target: Induced myeloid leukemia cell differentiation protein Mcl-1 (Homo sapiens, UniProt Q07820); format: functional
# Estrogen receptor = biological target: T2, Estrogen receptor (Homo sapiens, UniProt P03372);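 further: potency for inhibiting coactivator peptide recruitment to the receptor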
# T2 sequence (P03372 whole entry): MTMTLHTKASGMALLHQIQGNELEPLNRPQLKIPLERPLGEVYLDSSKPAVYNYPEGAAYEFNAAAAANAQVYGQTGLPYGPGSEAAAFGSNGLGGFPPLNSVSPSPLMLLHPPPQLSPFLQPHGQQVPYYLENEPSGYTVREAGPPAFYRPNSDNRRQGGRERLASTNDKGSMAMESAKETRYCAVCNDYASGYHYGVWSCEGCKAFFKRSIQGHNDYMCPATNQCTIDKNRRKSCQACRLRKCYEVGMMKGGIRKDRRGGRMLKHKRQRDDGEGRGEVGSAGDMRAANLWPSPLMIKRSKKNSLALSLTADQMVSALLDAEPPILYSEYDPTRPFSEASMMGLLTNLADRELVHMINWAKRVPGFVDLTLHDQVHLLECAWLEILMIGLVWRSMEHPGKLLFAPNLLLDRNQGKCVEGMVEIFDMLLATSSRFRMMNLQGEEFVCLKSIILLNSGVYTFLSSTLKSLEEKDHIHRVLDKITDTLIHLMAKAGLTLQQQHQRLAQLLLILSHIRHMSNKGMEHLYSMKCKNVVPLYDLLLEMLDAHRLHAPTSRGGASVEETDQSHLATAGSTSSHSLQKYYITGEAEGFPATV
# [9] = biological target: T3, Carboxy-terminal domain RNA polymerase II polypeptide A small phosphatase 1 (Homo sapiens, UniProt Q9GZU7); experiment: inhibitors of CTDSP1, concentration-response testing, biochemical assay, absorbance-based, actives from ultra-high-throughput screening (AID 540297); format: functional
# T3 sequence (Q9GZU7 whole entry): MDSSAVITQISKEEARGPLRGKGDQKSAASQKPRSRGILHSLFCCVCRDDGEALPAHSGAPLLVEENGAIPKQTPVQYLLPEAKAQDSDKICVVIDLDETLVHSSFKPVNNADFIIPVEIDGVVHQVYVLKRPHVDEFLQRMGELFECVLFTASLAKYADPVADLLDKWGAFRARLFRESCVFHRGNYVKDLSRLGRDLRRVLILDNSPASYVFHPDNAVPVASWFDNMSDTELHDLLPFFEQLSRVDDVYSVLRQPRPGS
# [10] = biological target: T4, Mannose-6-phosphate isomerase (Homo sapiens, UniProt P34949); experiment: human PMI inhibitors, high substrate, primary screen, biochemical, fluorescence intensity, high mannose 6-phosphate (AID 1220)
# T4 sequence (P34949 whole entry): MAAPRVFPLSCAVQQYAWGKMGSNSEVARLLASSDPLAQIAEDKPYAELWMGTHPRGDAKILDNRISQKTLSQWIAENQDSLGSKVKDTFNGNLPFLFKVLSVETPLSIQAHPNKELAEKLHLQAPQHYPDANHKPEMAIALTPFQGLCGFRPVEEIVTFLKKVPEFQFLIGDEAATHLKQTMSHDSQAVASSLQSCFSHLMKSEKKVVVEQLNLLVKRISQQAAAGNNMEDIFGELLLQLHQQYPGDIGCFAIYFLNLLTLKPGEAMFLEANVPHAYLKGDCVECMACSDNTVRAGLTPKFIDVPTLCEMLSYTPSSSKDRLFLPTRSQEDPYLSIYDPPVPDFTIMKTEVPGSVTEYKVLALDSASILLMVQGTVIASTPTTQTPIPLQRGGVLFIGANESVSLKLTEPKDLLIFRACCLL
# [11] = biological target: DNA dC->dU-editing enzyme APOBEC-3G (Homo sapiens, UniProt Q9HC16); experiment: Dose Response confirmation of small molecule APOBEC3G DNA Deaminase Inhibitors via a fluorescence-based single-stranded DNA deaminase assay. [Related pubchem assays (depositor defined):AID493012, AID493028]; format: functional
# [12] = biological target: T4, Mannose-6-phosphate isomerase; experiment: inhibitors of human PMI, primary screen, biochemical, fluorescence intensity, coupled assay (AID 1209)
# [13] = biological target: DNA dC->dU-editing enzyme APOBEC-3A (Homo sapiens, UniProt P31941); experiment: APOBEC3A DNA deaminase inhibitors, dose response, biochemical (AID 504722); format: functional
# [14] = biological target: FAD-linked sulfhydryl oxidase ALR (Homo sapiens, UniProt P55789); experiment: inhibitors of human ALR sulfhydryl oxidase, dose response, biochemical, H2O2 detection, luminescence, cherry-pick (AID 493248)
# Beta-galactosidase = Beta-galactosidase (Escherichia coli, UniProt Q8VNN2); experiment: beta-galactosidase enzyme inhibitors and activators, dose response, artefact control for CCR6 antagonist project, biochemical, E. coli enzyme, set 3 (AID 504712); format: functional
# [15] = off-target signal loss in HeLa-CEM21 co-culture – HeLa F-luc CTL cells, cherry-picked, counter-screen for HIV-1 Env fusion inhibitor project, dose response (AID 652040); format: functional, cell-based;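 further: potency for signal decrease marking cytotoxic or nonspecific inhibition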
# [16] = ZM109 Env clade C HIV-1 fusion inhibitors, dose response, HeLa effector, CEM target cells, luciferase, cherry-pick (AID 652058); format: functional, cell-based
# [17] = inhibitors of HIV Env-driven cell fusion, dose response, cherry-pick (AID 652057); format: functional, cell-based
# Hexokinase = Hexokinase (Trypanosoma brucei, UniProt Q38C41); experiment: Confirmation assay for inhibitors of Trypanosoma brucei hexokinase 1-Analogue-first series. [Related pubchem assays (depositor defined):AID1430, AID1632, AID2516, AID2560, AID2579, AID2600, AID449725, AID492951]; format: functional
# [18] = biological target: T5, Lysine-specific demethylase 4C (Homo sapiens, UniProt Q9H3R0); experiment: GASC-1 (JMJD2C) histone demethylase inhibitors, dose response, biochemical, DELFIA europium, cherry-picked samples (AID 488835); format: functional
# T5 sequence (Q9H3R0 whole entry): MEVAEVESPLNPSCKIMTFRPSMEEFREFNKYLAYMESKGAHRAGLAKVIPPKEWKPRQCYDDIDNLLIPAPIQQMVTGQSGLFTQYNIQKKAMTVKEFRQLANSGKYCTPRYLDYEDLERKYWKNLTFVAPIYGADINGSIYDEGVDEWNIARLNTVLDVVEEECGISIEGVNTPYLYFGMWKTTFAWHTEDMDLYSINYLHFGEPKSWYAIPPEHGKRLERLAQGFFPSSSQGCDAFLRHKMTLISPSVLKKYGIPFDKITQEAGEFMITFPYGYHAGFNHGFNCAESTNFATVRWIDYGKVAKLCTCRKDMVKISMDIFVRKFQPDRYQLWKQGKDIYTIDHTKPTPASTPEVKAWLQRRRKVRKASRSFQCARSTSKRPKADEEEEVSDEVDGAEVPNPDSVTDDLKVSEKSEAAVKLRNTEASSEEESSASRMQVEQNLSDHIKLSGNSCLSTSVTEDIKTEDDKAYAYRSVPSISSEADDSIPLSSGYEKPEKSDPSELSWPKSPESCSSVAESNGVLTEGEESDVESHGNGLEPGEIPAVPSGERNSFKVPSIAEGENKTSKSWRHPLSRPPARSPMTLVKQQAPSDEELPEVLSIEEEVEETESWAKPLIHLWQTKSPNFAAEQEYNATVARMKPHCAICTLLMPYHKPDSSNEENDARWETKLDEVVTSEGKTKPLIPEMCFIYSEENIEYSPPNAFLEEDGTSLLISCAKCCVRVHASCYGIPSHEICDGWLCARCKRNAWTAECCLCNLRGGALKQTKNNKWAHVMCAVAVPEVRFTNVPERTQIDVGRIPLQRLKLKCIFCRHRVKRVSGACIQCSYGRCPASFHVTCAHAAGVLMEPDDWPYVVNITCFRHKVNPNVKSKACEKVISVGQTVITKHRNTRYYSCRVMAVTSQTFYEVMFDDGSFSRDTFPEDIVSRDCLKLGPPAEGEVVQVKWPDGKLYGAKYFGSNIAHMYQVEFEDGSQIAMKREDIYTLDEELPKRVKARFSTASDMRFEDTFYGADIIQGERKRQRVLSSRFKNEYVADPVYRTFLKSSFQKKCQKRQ
# Genome polyprotein = Genome polyprotein (dengue virus type 2, UniProt P29990); experiment: Dengue-2 NS5 methyltransferase inhibitors, primary screen, biochemical, confirmation dose response (AID 588689); format: functional
# Vero = Vero cell cytotoxicity, cytotoxicity control for flavivirus capping enzyme inhibitors (AID 588742); format: functional; details: Chlorocebus sabaeus
# Hexokinase HKDC1 = biological target: T6, Hexokinase HKDC1 (Homo sapiens, UniProt Q2TB90); experiment: HKDC1 hexokinase inhibitors, dose response, biochemical, W721R variant (AID 504729); format: functional
# T6 sequence (Q2TB90 whole entry): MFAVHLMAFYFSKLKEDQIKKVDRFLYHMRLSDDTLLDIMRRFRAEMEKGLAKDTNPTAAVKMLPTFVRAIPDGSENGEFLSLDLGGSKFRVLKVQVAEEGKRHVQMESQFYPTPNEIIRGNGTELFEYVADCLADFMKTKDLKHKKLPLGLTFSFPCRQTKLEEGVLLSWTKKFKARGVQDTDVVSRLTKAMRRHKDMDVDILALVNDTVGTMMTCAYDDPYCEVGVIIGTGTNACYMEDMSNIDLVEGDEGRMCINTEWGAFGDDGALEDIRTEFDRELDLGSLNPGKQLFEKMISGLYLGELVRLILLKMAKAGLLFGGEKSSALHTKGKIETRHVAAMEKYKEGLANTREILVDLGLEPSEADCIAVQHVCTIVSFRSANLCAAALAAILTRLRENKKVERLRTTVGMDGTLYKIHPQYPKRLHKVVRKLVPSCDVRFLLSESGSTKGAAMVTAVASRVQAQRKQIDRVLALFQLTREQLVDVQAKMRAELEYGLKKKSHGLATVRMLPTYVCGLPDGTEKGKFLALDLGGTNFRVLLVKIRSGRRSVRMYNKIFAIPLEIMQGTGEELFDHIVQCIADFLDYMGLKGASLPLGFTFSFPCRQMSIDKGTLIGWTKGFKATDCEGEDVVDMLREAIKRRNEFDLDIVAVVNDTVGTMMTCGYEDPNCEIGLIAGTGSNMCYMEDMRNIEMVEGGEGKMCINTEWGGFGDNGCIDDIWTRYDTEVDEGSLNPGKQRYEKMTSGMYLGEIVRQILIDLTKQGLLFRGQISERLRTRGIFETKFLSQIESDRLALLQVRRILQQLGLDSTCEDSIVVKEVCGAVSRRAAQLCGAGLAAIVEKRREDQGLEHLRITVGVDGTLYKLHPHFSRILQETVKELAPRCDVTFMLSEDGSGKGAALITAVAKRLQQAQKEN
# Chain of Beta-galactosidase (Q8VNN2 whole entry, the tested form may be a part): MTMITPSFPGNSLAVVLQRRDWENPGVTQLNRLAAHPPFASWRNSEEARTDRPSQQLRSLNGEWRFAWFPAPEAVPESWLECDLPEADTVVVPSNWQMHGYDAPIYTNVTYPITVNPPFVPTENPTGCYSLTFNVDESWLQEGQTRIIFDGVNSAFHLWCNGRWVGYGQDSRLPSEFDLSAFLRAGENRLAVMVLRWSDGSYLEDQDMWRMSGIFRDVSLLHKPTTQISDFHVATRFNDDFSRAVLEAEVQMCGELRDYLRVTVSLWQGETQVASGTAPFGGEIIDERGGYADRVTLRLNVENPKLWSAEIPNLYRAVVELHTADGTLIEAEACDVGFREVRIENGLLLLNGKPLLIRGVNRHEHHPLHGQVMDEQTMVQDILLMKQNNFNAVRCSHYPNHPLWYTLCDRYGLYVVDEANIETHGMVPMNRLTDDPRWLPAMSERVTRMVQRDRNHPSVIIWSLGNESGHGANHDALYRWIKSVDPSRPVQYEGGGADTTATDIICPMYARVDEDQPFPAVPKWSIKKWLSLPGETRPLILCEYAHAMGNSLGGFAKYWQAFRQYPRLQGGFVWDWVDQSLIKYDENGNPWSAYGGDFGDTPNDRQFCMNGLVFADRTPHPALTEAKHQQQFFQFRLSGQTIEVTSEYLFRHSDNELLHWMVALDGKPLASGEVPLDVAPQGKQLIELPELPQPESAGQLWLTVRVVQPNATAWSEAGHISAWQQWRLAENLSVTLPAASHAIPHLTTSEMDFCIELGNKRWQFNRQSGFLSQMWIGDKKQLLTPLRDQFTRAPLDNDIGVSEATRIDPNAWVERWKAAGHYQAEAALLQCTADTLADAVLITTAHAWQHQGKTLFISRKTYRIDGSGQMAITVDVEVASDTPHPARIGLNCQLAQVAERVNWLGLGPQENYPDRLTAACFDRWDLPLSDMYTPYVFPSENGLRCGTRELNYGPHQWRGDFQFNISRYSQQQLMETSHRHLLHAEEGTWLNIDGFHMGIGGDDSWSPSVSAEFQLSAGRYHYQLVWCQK
# Chain of G-protein coupled receptor 55 (Q9Y2T6 whole entry): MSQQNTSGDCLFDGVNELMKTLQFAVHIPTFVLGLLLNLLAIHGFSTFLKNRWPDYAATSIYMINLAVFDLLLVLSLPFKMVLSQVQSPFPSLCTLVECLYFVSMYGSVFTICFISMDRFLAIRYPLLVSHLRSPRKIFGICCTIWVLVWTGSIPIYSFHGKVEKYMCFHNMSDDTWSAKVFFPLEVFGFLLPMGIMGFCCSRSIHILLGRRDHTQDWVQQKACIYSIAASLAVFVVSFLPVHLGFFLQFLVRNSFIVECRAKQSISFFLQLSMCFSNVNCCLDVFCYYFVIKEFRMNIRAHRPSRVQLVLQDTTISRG
# T1 sequence (Q92731 whole entry): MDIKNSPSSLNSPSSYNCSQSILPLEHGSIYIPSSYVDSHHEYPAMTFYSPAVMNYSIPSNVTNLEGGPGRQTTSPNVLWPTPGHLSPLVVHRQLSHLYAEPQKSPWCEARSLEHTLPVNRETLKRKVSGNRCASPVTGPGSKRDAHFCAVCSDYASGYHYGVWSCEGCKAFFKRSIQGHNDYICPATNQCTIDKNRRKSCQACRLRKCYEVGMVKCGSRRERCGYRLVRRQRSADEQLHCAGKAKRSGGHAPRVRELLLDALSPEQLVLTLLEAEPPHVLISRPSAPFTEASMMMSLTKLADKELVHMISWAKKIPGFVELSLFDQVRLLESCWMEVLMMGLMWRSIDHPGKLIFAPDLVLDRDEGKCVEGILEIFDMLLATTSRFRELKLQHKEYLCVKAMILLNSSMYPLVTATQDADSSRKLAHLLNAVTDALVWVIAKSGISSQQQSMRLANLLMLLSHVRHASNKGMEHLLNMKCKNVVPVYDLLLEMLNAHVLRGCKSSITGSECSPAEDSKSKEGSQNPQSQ
# Chain of DNA dC->dU-editing enzyme APOBEC-3G (Q9HC16 whole entry): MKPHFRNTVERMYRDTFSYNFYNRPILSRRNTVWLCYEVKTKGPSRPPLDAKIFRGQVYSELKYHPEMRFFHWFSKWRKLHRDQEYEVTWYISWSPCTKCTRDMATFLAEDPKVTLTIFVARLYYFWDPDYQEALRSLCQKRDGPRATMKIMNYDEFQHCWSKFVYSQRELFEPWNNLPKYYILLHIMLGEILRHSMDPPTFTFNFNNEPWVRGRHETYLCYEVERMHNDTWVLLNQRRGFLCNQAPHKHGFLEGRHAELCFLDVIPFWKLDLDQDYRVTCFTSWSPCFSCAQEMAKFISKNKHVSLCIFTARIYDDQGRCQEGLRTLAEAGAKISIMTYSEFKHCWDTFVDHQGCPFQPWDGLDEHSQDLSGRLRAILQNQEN
# Chain of DNA dC->dU-editing enzyme APOBEC-3A (P31941 whole entry): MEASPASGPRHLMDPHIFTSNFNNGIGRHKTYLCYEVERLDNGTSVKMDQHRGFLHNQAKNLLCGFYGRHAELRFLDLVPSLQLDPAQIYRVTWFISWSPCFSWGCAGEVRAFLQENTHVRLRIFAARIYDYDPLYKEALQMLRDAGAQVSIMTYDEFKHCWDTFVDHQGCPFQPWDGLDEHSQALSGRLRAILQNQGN
# Chain of Polyadenylate-binding protein 1 (P11940 whole entry): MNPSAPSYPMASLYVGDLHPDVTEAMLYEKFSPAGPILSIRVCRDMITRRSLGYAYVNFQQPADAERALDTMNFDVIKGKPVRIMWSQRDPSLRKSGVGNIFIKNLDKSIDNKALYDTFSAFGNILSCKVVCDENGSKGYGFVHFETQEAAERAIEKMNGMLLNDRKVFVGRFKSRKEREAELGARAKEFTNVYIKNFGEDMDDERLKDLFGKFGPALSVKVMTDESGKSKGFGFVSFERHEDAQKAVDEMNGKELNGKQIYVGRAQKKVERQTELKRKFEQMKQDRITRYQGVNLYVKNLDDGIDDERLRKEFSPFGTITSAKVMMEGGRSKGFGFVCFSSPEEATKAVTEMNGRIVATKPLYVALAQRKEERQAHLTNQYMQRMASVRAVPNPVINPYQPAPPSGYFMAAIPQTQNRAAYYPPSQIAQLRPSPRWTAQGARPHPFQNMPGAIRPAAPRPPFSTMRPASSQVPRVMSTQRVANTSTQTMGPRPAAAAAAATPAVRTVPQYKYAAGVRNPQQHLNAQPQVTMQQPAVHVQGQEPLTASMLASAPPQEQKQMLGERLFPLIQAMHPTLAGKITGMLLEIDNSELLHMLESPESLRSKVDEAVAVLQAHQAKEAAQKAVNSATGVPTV
# Chain of Hexokinase (Q38C41 whole entry): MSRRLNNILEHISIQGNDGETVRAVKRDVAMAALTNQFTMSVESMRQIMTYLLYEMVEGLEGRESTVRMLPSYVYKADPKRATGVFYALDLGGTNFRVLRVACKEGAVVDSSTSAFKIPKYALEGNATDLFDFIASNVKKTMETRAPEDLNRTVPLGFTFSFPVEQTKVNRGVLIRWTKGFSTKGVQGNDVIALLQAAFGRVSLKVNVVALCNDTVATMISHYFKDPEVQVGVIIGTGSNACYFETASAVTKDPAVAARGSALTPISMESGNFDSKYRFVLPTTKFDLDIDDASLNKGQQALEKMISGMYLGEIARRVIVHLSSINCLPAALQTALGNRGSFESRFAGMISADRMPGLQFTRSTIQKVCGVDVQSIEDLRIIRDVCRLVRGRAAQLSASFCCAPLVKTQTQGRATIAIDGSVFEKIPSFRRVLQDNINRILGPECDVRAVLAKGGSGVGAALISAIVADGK
# Chain of FAD-linked sulfhydryl oxidase ALR (P55789 whole entry): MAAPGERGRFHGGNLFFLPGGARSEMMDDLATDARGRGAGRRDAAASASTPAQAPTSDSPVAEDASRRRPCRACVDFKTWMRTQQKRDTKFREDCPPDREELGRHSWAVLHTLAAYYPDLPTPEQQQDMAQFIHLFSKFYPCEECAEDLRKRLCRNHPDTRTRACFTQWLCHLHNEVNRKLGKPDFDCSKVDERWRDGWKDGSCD
# Chain of Induced myeloid leukemia cell differentiation protein Mcl-1 (Q07820 whole entry): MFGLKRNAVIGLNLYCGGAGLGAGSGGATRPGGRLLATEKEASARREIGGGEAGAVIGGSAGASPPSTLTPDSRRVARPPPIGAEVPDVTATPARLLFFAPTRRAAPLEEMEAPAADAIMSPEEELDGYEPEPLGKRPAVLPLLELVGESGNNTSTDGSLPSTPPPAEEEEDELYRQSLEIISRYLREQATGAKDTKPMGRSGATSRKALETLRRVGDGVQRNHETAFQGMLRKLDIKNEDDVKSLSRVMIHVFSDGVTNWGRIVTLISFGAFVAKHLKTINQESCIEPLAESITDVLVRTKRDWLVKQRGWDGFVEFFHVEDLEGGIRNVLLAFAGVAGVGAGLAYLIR
# Chain of Melanocortin receptor 4 (P32245 whole entry): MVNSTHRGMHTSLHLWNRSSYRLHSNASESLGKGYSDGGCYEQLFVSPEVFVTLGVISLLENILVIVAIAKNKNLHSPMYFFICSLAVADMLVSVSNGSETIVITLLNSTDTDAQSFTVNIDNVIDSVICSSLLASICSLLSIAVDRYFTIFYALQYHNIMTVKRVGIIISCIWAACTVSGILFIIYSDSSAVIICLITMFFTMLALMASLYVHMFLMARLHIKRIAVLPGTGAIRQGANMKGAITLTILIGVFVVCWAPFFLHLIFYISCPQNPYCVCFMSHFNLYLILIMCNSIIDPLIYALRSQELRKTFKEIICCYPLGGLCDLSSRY
compound,measurement,setting,value
OC(CNCCc1ccc(C(F)(F)F)cc1)COC(c1ccccc1)c1ccccc1 (configuration not stated),CC50,[1],24.5 µM (active)
same,IC50,[2],2.65 µM (active)
same,EC50,Melanocortin receptor 4,> 89.2 µM (inactive)
COc1ccc(N2Cc3cccc(C(=O)N4CCN(C(=O)c5ccco5)CC4)c3C2=O)cc1,IC50,[3],1.43 µM (active)
same,IC50,Estrogen receptor beta [4],5.99 µM (active)
same,IC50,[5],9.04 µM (active)
same,IC50,Estrogen receptor beta [6],> 50 µM (not active)
same,IC50,[7],10.2 µM (active)
same,IC50,[8],3.1 µM (active)
same,IC50,Estrogen receptor,9.8 µM (active)
same,IC50,[9],4.24 µM (active)
Nn1c(S)nnc1Cc1ccc(Br)cc1,IC50,[10],> 50 µM (not active)
same,IC50,[11],3.6 µM (active)
same,IC50,[12],> 50 µM (not active)
same,IC50,[13],> 100 µM (inactive)
Cn1c(CSc2nc3ccccc3s2)n[nH]c1=S,IC50,[11],4.35 µM (active)
same,AC50,[14],1.82 µM (active)
same,IC50,[13],> 100 µM (inactive)
COC(=O)c1[nH]c2ccccc2c1Sc1ccccc1,IC50,[3],> 100 µM (inactive)
same,IC50,[7],> 100 µM (inactive)
O=C(COc1ccc(Cl)cc1)N/N=C/c1cccc2cccnc12,IC50,Beta-galactosidase,> 66.6 µM (inactive)
COc1ccc(CCN2C(=O)c3[nH]nc(-c4ccccc4O)c3C2c2cccc(O)c2)cc1OC (configuration not stated),IC50,[2],2.7 µM (active)
same,AC50,[15],17.6 µM (active)
same,AC50,[16],8.34 µM (active)
same,AC50,[17],2.44 µM (active)
Cc1cccc(C(=O)Nc2cc(Cl)ccc2C(=O)O)c1,IC50,Hexokinase,22.3 µM (active)
O=C(Cn1sc2ccccc2c1=O)Nc1ccc(C(F)(F)F)cc1,IC50,Hexokinase,> 25 µM (inactive)
CCOC(=O)C1=C(Cc2ccc(F)cc2)C(=O)c2ccccc2C1=O,AC50,[18],13.4 µM (active)
same,IC50,Genome polyprotein,86.4 µM (active)
same,IC50,Beta-galactosidase,> 66.6 µM (inactive)
same,CC50,Vero,> 40 µM (active)
same,IC50,Hexokinase HKDC1,11.4 µM (active)
